# Results reported in ChEMBL document CHEMBL1137511, “Identification of a series of novel derivatives as potent HCV inhibitors by a ligand-based virtual screening optimized procedure” (Bioorg Med Chem, 2007).
# Assay: Inhibition of HCV genotype 1 polymerase
# Parameters: species or system Hepacivirus hominis
row,SMILES,IC50 [nM]
1,O=c1c(C2=NS(=O)(=O)c3ccccc3N2)c(O)c2ccccc2n1NCC1CCCC1,747
2,COC(=O)c1ccccc1NS(=O)(=O)Nc1ccc2c(c1)S(=O)(=O)N=C(c1c(O)c3cccnc3n(CCC(C)C)c1=O)N2,129
3,CC(C)CCn1c(=O)c(C2=NS(=O)(=O)c3cc(NS(=O)(=O)NC(=O)OCCC#N)ccc3N2)c(O)c2cccnc21,35
4,CC(Nn1c(=O)c(C2=NS(=O)(=O)c3ccccc3N2)c(O)c2ccccc21)c1ccccc1 (stereo not given),16500
5,CC(C)CCn1c(=O)c(C2=NS(=O)(=O)c3cc(N)ccc3N2)c(O)c2cccnc21,310
6,COc1ccc(CNS(=O)(=O)Nc2ccc3c(c2)S(=O)(=O)N=C(c2c(O)c4cccnc4n(CCC(C)C)c2=O)N3)cc1,10
7,CC(C)CCn1c(=O)c(C2=NS(=O)(=O)c3cc(OCC#N)ccc3N2)c(O)c2cccnc21,141
8,CCCCCNn1c(=O)c(C2=NS(=O)(=O)c3ccccc3N2)c(O)c2ccccc21,928
9,CC(C)CCn1c(=O)c(C2=NS(=O)(=O)c3cc(NC(=O)C(F)(F)F)ccc3N2)c(O)c2cccnc21,906
10,O=c1c(C2=NS(=O)(=O)c3ccccc3N2)c(O)c2ccccc2n1NCc1ccc(Br)cc1,10400
11,CCC(CC)Nn1c(=O)c(C2=NS(=O)(=O)c3ccccc3N2)c(O)c2ccccc21,2460
12,CC(C)CCn1c(=O)c(C2=NS(=O)(=O)c3cc(NS(=O)(=O)Nc4ccc(C(N)=O)cc4)ccc3N2)c(O)c2cccnc21,18
13,CC(C)CCn1c(=O)c(C2=NS(=O)(=O)c3cc(NS(=O)(=O)NC(=O)OCCOCc4ccccc4)ccc3N2)c(O)c2cccnc21,96
14,CC(C)CCn1c(=O)c(C2=NS(=O)(=O)c3cc(NS(N)(=O)=O)ccc3N2)c(O)c2cccnc21,9
15,CC(C)CCn1c(=O)c(C2=NS(=O)(=O)c3cc(NS(=O)(=O)NCc4ccccc4)ccc3N2)c(O)c2cccnc21,5.5
16,COc1cccc2c1NC(c1c(O)c3cccnc3n(CCC(C)C)c1=O)=NS2(=O)=O,17600
17,CCCC(Nn1c(=O)c(C2=NS(=O)(=O)c3ccccc3N2)c(O)c2ccccc21)C(C)C (stereo not given),6400
18,CC(C)CCn1c(=O)c(C2=NS(=O)(=O)c3cc(NS(=O)(=O)NC(=O)OCc4ccccc4)ccc3N2)c(O)c2cccnc21,58
19,O=c1c(C2=NS(=O)(=O)c3cccc(O)c3N2)c(O)c2cccnc2n1Cc1ccccc1,8370
20,CC(C)CCn1c(=O)c(C2=NS(=O)(=O)c3cc(NS(=O)(=O)Nc4ccc(C(=O)O)cc4)ccc3N2)c(O)c2cccnc21,20
21,CC(C)CCn1c(=O)c(C2=NS(=O)(=O)c3cc(NS(=O)(=O)NCCO)ccc3N2)c(O)c2cccnc21,107
22,COCCOC(=O)NS(=O)(=O)Nc1ccc2c(c1)S(=O)(=O)NC(c1c(O)c3cccnc3n(CCC(C)C)c1=O)=N2,87
23,O=c1c(C2=NS(=O)(=O)c3ccccc3N2)c(O)c2ccccc2n1NC1CCCCC1,356

row,SMILES,IC50 [nM]
1,CNC(=O)COc1ccc2c(c1)S(=O)(=O)NC(c1c(O)c3cccnc3n(CCC(C)C)c1=O)=N2,180
2,CC(C)CCn1c(=O)c(C2=NS(=O)(=O)c3cc(NS(C)(=O)=O)ccc3N2)c(O)c2cccnc21,2
3,COc1ccc2c(c1)S(=O)(=O)NC(c1c(O)c3cccnc3n(Cc3ccccc3)c1=O)=N2,8310
4,CC(C)CCn1c(=O)c(C2=NS(=O)(=O)c3cc(NS(=O)(=O)Nc4cccc(C(N)=O)c4)ccc3N2)c(O)c2cccnc21,43
5,CC(C)CCn1c(=O)c(C2=NS(=O)(=O)c3cc(NS(=O)(=O)NCCc4ccccc4)ccc3N2)c(O)c2cccnc21,18
6,O=c1c(C2=NS(=O)(=O)c3ccccc3N2)c(O)c2ccccc2n1NCc1ccccc1Br,6720
7,CCCCS(=O)(=O)Nc1ccc2c(c1)S(=O)(=O)NC(c1c(O)c3cccnc3n(CCC(C)C)c1=O)=N2,22
8,CC(C)CCNn1c(=O)c(C2=NS(=O)(=O)c3ccccc3N2)c(O)c2ccccc21,629
9,O=c1c(C2=NS(=O)(=O)c3ccccc3N2)c(O)c2ccccc2n1NCC1CCCCCC1,1040
10,O=c1c(C2=NS(=O)(=O)c3ccccc3N2)c(O)c2ccccc2n1NCC1=CCOC=C1,4630
11,Cc1ccc2c(c1)S(=O)(=O)NC(c1c(O)c3cccnc3n(Cc3ccccc3)c1=O)=N2,25700
12,O=c1c(C2=NS(=O)(=O)c3ccccc3N2)c(O)c2ccccc2n1NCC1CC1,285
13,CCCOc1ccc2c(c1)S(=O)(=O)NC(c1c(O)c3cccnc3n(CCC(C)C)c1=O)=N2,1620
14,CC(C)CCn1c(=O)c(C2=NS(=O)(=O)c3cc(NS(=O)(=O)NC4CCCC4)ccc3N2)c(O)c2cccnc21,39
15,CC(C)(C)CCNn1c(=O)c(C2=NS(=O)(=O)c3ccccc3N2)c(O)c2ccccc21,411
16,CC(C)CCn1c(=O)c(C2=NS(=O)(=O)c3cc(O)ccc3N2)c(O)c2cccnc21,390
17,CC(C)CCn1c(=O)c(C2=NS(=O)(=O)c3cc(NS(=O)(=O)NC4CCCCC4)ccc3N2)c(O)c2cccnc21,67
18,CC(C)CCn1c(=O)c(C2=NS(=O)(=O)c3cc(NS(=O)(=O)c4ccccc4)ccc3N2)c(O)c2cccnc21,41
19,CC(C)CCn1c(=O)c(C2=NS(=O)(=O)c3cc(OCC(=O)N(C)C)ccc3N2)c(O)c2cccnc21,934
20,CNS(=O)(=O)Nc1ccc2c(c1)S(=O)(=O)NC(c1c(O)c3cccnc3n(CCC(C)C)c1=O)=N2,14
21,CNC(=O)c1ccc(NS(=O)(=O)Nc2ccc3c(c2)S(=O)(=O)N=C(c2c(O)c4cccnc4n(CCC(C)C)c2=O)N3)cc1,43
22,NS(=O)(=O)Nc1ccc2c(c1)S(=O)(=O)N=C(c1c(O)c3cccnc3n(NC3CCC3)c1=O)N2,5.2

# The remaining compounds from weak to strong by IC50, led by results:
row,IC50 [nM],SMILES
1,637000,CC(C)CCn1c(=O)c(C2=NS(=O)(=O)c3cc(OCCN)ccc3N2)c(O)c2cccnc21
2,87000,CNS(=O)(=O)Nc1ccc2c(c1)S(=O)(=O)N=C(c1c(O)c3cccnc3n(NC3CCC3)c1=O)N2
3,16800,O=c1c(C2=NS(=O)(=O)c3cc(Br)ccc3N2)c(O)c2cccnc2n1Cc1ccccc1
4,15000,Cc1ccsc1CNn1c(=O)c(C2=NS(=O)(=O)c3ccccc3N2)c(O)c2ccccc21
5,6700,Cc1cccc2c1N=C(c1c(O)c3cccnc3n(Cc3ccccc3)c1=O)NS2(=O)=O
6,6350,CC(C)Nn1c(=O)c(C2=NS(=O)(=O)c3ccccc3N2)c(O)c2ccccc21
7,5090,O=c1c(C2=NS(=O)(=O)c3ccccc3N2)c(O)c2ccccc2n1NCc1ccccc1
8,4780,O=c1c(C2=NS(=O)(=O)c3ccccc3N2)c(O)c2ccccc2n1NCc1ccc(Cl)s1
9,2530,O=c1c(C2=NS(=O)(=O)c3ccccc3N2)c(O)c2ccccc2n1NCC1CCCCC1
10,2330,O=c1c(C2=NS(=O)(=O)c3ccccc3N2)c(O)c2ccccc2n1NCc1cccs1
11,1890,CCCC(CC)Nn1c(=O)c(C2=NS(=O)(=O)c3ccccc3N2)c(O)c2ccccc21 (stereo not given)
12,1550,O=c1c(C2=NS(=O)(=O)c3ccccc3N2)c(O)c2ccccc2n1NCc1ccoc1
13,470,CC(C)CCn1c(=O)c(C2=NS(=O)(=O)c3cc(NCC(N)=O)ccc3N2)c(O)c2cccnc21
14,367,CC(C)CCn1c(=O)c(C2=NS(=O)(=O)c3cc(OCC(=O)O)ccc3N2)c(O)c2cccnc21
15,132,CCOC(=O)c1cccc(NS(=O)(=O)Nc2ccc3c(c2)S(=O)(=O)N=C(c2c(O)c4cccnc4n(CCC(C)C)c2=O)N3)c1
16,72,C#CCOC(=O)NS(=O)(=O)Nc1ccc2c(c1)S(=O)(=O)N=C(c1c(O)c3cccnc3n(CCC(C)C)c1=O)N2
17,48,COC(=O)c1ccc(NS(=O)(=O)Nc2ccc3c(c2)S(=O)(=O)N=C(c2c(O)c4cccnc4n(CCC(C)C)c2=O)N3)cc1
18,32,CC(C)CCn1c(=O)c(C2=NS(=O)(=O)c3cc(NS(=O)(=O)NC4CCNCC4)ccc3N2)c(O)c2cccnc21
19,27,CC(C)CCn1c(=O)c(C2=NS(=O)(=O)c3cc(NS(=O)(=O)N4CCCC4)ccc3N2)c(O)c2cccnc21
20,15,COc1cccc(CNS(=O)(=O)Nc2ccc3c(c2)S(=O)(=O)N=C(c2c(O)c4cccnc4n(CCC(C)C)c2=O)N3)c1
